These results are taken from US20020028851A1, “Guanylhydrazones and their use to treat inflammatory conditions” (priority 1994, published 2002).

What is called LD50 is the dose expected to kill half of the subjects tested. Lower therefore signals a more toxic substance.

Data set [1] has as its system RAW 264.7 cells. Kind of data set: Whole cell inhibition assay for urea output. The class given is cell-based, murine. Particulars: for urea % suppression of induced production: γIFN+LPS, 18 hours. On the procedure:
(§1) RAW 264.7 cells are plated in microculture wells at 1×10^6/ml in RPMI 1640 with 10% FBS and otherwise standard culture conditions and allowed to adhere for 5 hours. They are then activated with 25 U/ml γIFN and 0.1 μg/ml LPS in the presence of test inhibitors. The urea concentration present in the supernatant media, after 18 hours of culture, is determined by a colorimetric blood urea nitrogen diacetylmonoxime assay performed on an aliquot of the culture supernatant (Sigma Chem. Co., St. Louis, Mo.) and inhibition is expressed as the percentage urea compared to that of a parallel control culture treated identically except that the concentration of added inhibitor is zero.
(§2) Various concentrations of the test compounds are included in the media of the stimulated RAW 264.7 cells in culture. The concentration of urea and/or nitrite after 18 hours of activated culture is determined and compared to the uninhibited control value obtained from at least one parallel culture. The fractional reduction is calculated for each concentration of inhibitor and the IC50 (concentration giving 50% reduction) is interpolated. Compounds were dissolved in media with mild heat (60° C.). Those with limited solubility were dissolved in base. The concentration of stock solutions of those compounds which were not completely soluble was determined by OD280.

Another data set is described as follows: LD50. The class given is in vivo.
The next data set deals with CHO-TNF tumor. In words: CHO-TNF tumor growth in nude mice. Format: in vivo. To be noted: 0.4 mg/Kg i.p. once daily, two weeks. The protocol: This section describes in detail the methods and results of an animal model of tumor growth to determine the ability of the compounds of the invention to inhibit tumor growth, and cause regression of tumors. Cells are plated in standard tissue culture flasks in DMEM supplemented with fetal calf serum (10%). Chinese hamster ovary (CHO) cells stably transfected with a mammalian expression vector constitutively secrete human TNF (CHO-TNF). The experiments with the CHO-TNF tumor were performed as follows: on the day of injection into nude mice, cells are harvested and injected intramuscularly (10-15×10^6 cells per animal) into the hindlimb of nu/nu nude mice (20 g body weight). Animals are housed and provided food and water ad libitum. Tumor growth is monitored, and when established tumors are present (during week six) the test compounds are administered daily (0.4 mg/Kg intraperitoneal, once daily). After two weeks the animals are euthanized, the tumor weighed, and measured with a caliper. The CHO-TNF tumor also metastasizes to the skin of these animals; the number of metastases is scored.

The next data set deals with BALB/c mice. In words: LPS-induced lethality (endotoxic shock). Format: in vivo. On the procedure: Experiments were undertaken to evaluate the effects of Compound No. 14 in preventing the lethal toxicity of lipopolysaccharide (LPS). LPS was administered to induce 50% lethality within 72 hr in BALB/c mice (FIG. 10). BALB/c mice (19-21 g) were given LPS (E. coli 0111:B4; Sigma) in a dose of 13.75 mg/Kg by intraperitoneal injection (0.2 ml/mouse). Stock LPS solutions (10 mg/ml) were sonicated initially for 20 min, diluted in LPS-free water (1.375 mg/ml), then sonicated again for 10 min immediately prior to injection. Compound No. 14 (1 mg/Kg, i.p.) was administered 1.5 hr before LPS. Compound No. 14 injectate was free of LPS as measured by quantitative chromogenic Limulus amebocyte lysate test (BioWhittaker, Walkersville, Md.). Data points are from two groups consisting of 10 mice per group.
Data were subjected to statistical analysis using the z test for independent proportions. The difference bewteen control and Compound No. 14 is significant (one-tailed p value<0.05; z=1.95).

The next data set deals with MIP-1α. Kind of data set: Cytokine production by LPS/γIFN-stimulated human PBMC: MIP-1α. The class given is cell-based. Particulars: γIFN+LPS, 18 hr. From the text:
Similar results concerning a variety of cytokines in addition to TNF, e.g., IL-6 and Macrophage Inflammatory Proteins-1α and -1β (MIP-1α and MIP-1β) were obtained using human peripheral blood as a source of monocytes. Human peripheral blood mononuclear cells (PBMC) were isolated using “FICOLL®”-based methods and plated in standard 6-well culture plates at a concentration of 10^6/well and allowed to adhere for from 2 hr to overnight whereupon non-adherent cells were washed out and the medium was then replaced with medium containing the compound to be tested. One hour later, the medium was supplemented so as to contain 25 U/ml γIFN and 0.1 μg/ml LPS and the cultures incubated a further 18 hr. The medium was then collected, and cell debris removed by centrifugation. This conditioned supernatant was then assayed for the presence of cytokines using the standard methodologies of L929 cell cytotoxicity bioassay and immunoassay (ELISA).

Data set [2] relates to RAW 264.7 cells. In words: Whole cell inhibition assay for NO (nitrite) output. Particulars: for no2/no3 % suppression of induced production: γIFN+LPS, 18 hours. The class given is cell-based, murine. On the procedure: as §1
The production of nitrite is determined by assay of the same tissue culture supernatant by means of a calorimetric assay. Briefly, 4 parts of test solution containing 1% (w/v) sulfanilamide, 0.1% naphthylethylenediamine di-HCl (Griess Reagent), 2.5% H3PO4 and one part media are mixed, incubated for 10 minutes and the absorbance at 560 nm determined. The nitrite concentrations are interpolated from reference curves prepared using NaNO2.
as §2
This section describes experiments that measure the concentration of Compound No. 14 needed to inhibit arginine uptake and NO output. The techniques employed were described in section 7.1 supra.

In the case of `CC(=NNC(=N)N)c1cc(NC(=O)CCCCCCCCC(=O)Nc2cc(C(C)=NNC(=N)N)cc(C(C)=NNC(=N)N)c2)cc(C(C)=NNC(=N)N)c1.Cl.Cl.Cl.Cl` [Compound 14, N,N′-bis(3,5-diacetyl-phenyl)decanediamide tetrakis(amidinohydrazone) tetrahydrochloride], the “urea % suppression of induced production” value with RAW 264.7 cells [1] (dose 2 μM) is on record as 68%; in the data set on RAW 264.7 cells [1] (dose 10 μM) it was 78%; in the data set on RAW 264.7 cells [1] (dose 50 μM), 100%; with RAW 264.7 cells [1] (dose 200 μM), 100%. Also, the IC50 was 1 µM with RAW 264.7 cells [1] (interpolated, γIFN+LPS-activated RAW 264.7, 18 hours, read-out: I.C.50 (in parenthesis), inhibition of urea production) and 20 ± 2 µM with RAW 264.7 cells [2] (exposed from 8 hours after stimulation, NO output during hours 12-24, mean±std. err., n=3, read-out: I.C.50 for NO output). The LD50 is 50 mg/kg in the data set “LD50” (given intraperitoneally) and “exceeds 1 g/kg” in the data set “LD50” (given orally). The “# of METASTASES (skin)” value is listed as “not present” in the data set on CHO-TNF tumor and 0 in the data set on CHO-TNF tumor (listed as No. 14). Moreover, the “reduction in tumor size (animals responding)” value in the data set on CHO-TNF tumor was “reduction in tumor size in four out of five animals”. In addition, in the data set with CHO-TNF tumor (n = 4), the “TUMOR DIMENSION” value turned out to be 207.99 ± 119.90 mm^2. Also, the “TUMOR WEIGHT” value in the data set with CHO-TNF tumor (n = 4) is 1.628 ± 1.07 g. In the data set with BALB/c mice (1 mg/Kg i.p. 1.5 hr before LPS), the “Diarrhea after LPS” value is “not suppressed”. For the same compound, in the data set on BALB/c mice (1 mg/Kg i.p. 1.5 hr before LPS), the “visible signs of LPS toxicity” value is recorded as “markedly suppressed”. In the data set with BALB/c mice (1 mg/Kg i.p. 1.5 hr before LPS 13.75 mg/Kg i.p., 72 hr, p<0.05), the LPS-induced lethality result is listed as “reduced lethality”. The “gross signs of systemic toxicity” value in the data set with BALB/c mice (animals receiving compound alone, 1 mg/Kg i.p.) is “no gross signs of systemic toxicity”. In addition, the “concentration that effectively inhibited production of MIP-1α” value in the data set with MIP-1α lay in the range of 10 to 20 µM. Moreover, the “no2/no3 % suppression of induced production” value in the data set with RAW 264.7 cells [2] (dose 2 μM) turned out to be 0%; in the data set on RAW 264.7 cells [2] (dose 10 μM), 69%; in the data set with RAW 264.7 cells [2] (dose 50 μM), 100%; in the data set with RAW 264.7 cells [2] (dose 200 μM), 100%.
